Columns and labels:
[1] = test system: Green Peach Aphid (Myzus Persicae); test: Insecticidal test for green peach aphid in foliar spray assay (col. MYZUPE); assay type: in vivo; settings: Myzus persicae, 72 h, green peach aphid, read-out: MYZUPE 200 ppm (Corrected % Control, rating)
Summary of the method: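 Cabbage seedlings with 2-3 true leaves, infested with 20-50 wingless adult and nymph aphids one day earlier, sprayed to runoff at 200 ppm (acetone/methanol stock diluted in 0.025% Tween 20), four pots per treatment. After 3 days at ~25 °C, 40% RH, live aphids counted; corrected % control versus solvent-sprayed plants.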

[2] = test system: Sweetpotato Whitefly-Crawler (Bemisia Tabaci); test: Insecticidal test for sweetpotato whitefly-crawler in foliar spray assay (col. BEMITA); assay type: in vivo; settings: Bemisia tabaci, sweetpotato whitefly-crawler, read-out: BEMITA 200 ppm (Corrected % Control, rating)
Summary of the method: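 Cotton plants (one 3-5 cm true leaf) infested with whitefly eggs (100-300/plant), held 5-6 days at 82° F, 50% RH until crawlers developed. Sprayed to runoff at 200 ppm (acetone stock diluted in 0.025% Tween 20), four plants per treatment. Live nymphs counted after 8-9 days; % control by Abbott's correction versus solvent check.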

## CS[C@H]1CC1C(=O)Nc1sc(-c2cncc(F)c2)nc1C (stereo partly drawn) [Compound 220]
[1]
  pest or weed control at 200 ppm: 80 to 100%
[2]
  pest or weed control at 200 ppm: 80 to 100%
other
  melting point: 206 to 212 °C

## C=CC[S+]([O-])CC(C)C(=O)Nc1sc(-c2cccnc2)nc1C (stereo not drawn) [Compound 225]
[1]
  pest or weed control at 200 ppm: 80 to 100%
[2]
  pest or weed control at 200 ppm: 80 to 100%
other
  melting point: 147 to 149 °C

## CCN(C(=O)CC[S+](C)[O-])c1sc(-c2cccnc2)nc1C (stereo not drawn) [Compound 238]
[1]
  pest or weed control at 200 ppm: 80 to 100%
[2]
  pest or weed control at 200 ppm: 80 to 100%
other
  melting point: 89 to 92 °C

## Cc1nc(-c2cncc(Br)c2)sc1N(C)C(=O)OC(C)(C)C [Compound 251]
[1]
  pest or weed control at 200 ppm: < 80%
[2]
  pest or weed control at 200 ppm: 80 to 100%
other
  melting point: 74 to 76 °C

## CC(C)C(=O)N(C)c1sc(-c2cncc(F)c2)nc1Cl [Compound 263]
[1]
  pest or weed control at 200 ppm: 80 to 100%
[2]
  pest or weed control at 200 ppm: 80 to 100%
other
  melting point: 123 to 125 °C

## CSCC(C)(C)C(=O)N(C)c1sc(-c2cccnc2)nc1Cl [Compound 264]
[1]
  pest or weed control at 200 ppm: 80 to 100%
[2]
  pest or weed control at 200 ppm: 80 to 100%
other
  melting point: 103 to 106 °C

## CC(C)(C)OC(=O)N(COCc1ccccc1)c1cnc(-c2cccnc2)s1 [Compound 265]
[1]
  pest or weed control at 200 ppm: 80 to 100%
[2]
  pest or weed control at 200 ppm: < 80%
other
  melting point: 98 to 99 °C

## CN(C(=O)c1cnn(C)c1)c1sc(-c2cncc(F)c2)nc1Cl [Compound 268]
[1]
  pest or weed control at 200 ppm: 80 to 100%
[2]
  pest or weed control at 200 ppm: 80 to 100%
other
  melting point: 151 to 155 °C

## CC(CS(C)(=O)=O)C(=O)N(C)c1sc(-c2cncc(F)c2)nc1Cl (stereo not drawn) [Compound 271]
[1]
  pest or weed control at 200 ppm: 80 to 100%
[2]
  pest or weed control at 200 ppm: 80 to 100%
other
  melting point: 151 to 154 °C

## CC(C)(C)OC(=O)N(C(=O)OC(C)(C)C)c1cnc(-c2cncc(F)c2)s1 [Compound 277, di(tert-butyl)2-(5-fluoropyridin-3-yl)-1,3-thiazol-5-ylimidodicarbonate]
[1]
  pest or weed control at 200 ppm: 80 to 100%
[2]
  pest or weed control at 200 ppm: 80 to 100%
other
  melting point: 94 to 96 °C

## CSCC(C)C(=O)N(C)c1sc(-c2cncc(Br)c2)nc1C (stereo not drawn) [Compound 296]
[1]
  pest or weed control at 200 ppm: 80 to 100%
[2]
  pest or weed control at 200 ppm: 80 to 100%
other
  melting point: 79 to 81 °C

## CC(C)(C)OC(=O)Nc1sc(-c2cncc(F)c2)nc1Br [Compound 297]
[1]
  pest or weed control at 200 ppm: < 80%
[2]
  pest or weed control at 200 ppm: < 80%
other
  melting point: 164 to 166 °C

## CSCCC(=O)Nc1sc(-c2cncc(F)c2)nc1Br [Compound 298]
[1]
  pest or weed control at 200 ppm: 80 to 100%
[2]
  pest or weed control at 200 ppm: < 80%
other
  melting point: 160 to 163 °C

## CC(C[S+](C)[O-])C(=O)Nc1sc(-c2cncc(F)c2)nc1Br (stereo not drawn) [Compound 306]
[1]
  pest or weed control at 200 ppm: 80 to 100%
[2]
  pest or weed control at 200 ppm: < 80%
other
  melting point: 172 to 175 °C

## CC(CS(C)(=O)=O)C(=O)Nc1sc(-c2cncc(F)c2)nc1Br (stereo not drawn) [Compound 307]
[1]
  pest or weed control at 200 ppm: 80 to 100%
[2]
  pest or weed control at 200 ppm: < 80%
other
  melting point: 185 to 188 °C

## CCN(C(=O)CCSC)c1cnc(-c2cncc(F)c2)s1 [Compound 308]
[1]
  pest or weed control at 200 ppm: 80 to 100%
[2]
  pest or weed control at 200 ppm: 80 to 100%
other
  melting point: 78 to 81 °C

## Cc1nc(-c2cncc(F)c2)sc1NC(=O)OC(C)(C)C [Compound 309]
[1]
  pest or weed control at 200 ppm: < 80%
[2]
  pest or weed control at 200 ppm: < 80%
other
  melting point: 160 to 161 °C

## CCN(C(=O)C(C)CSC)c1sc(-c2cccnc2)nc1Cl (stereo not drawn) [Compound 316, N-(4-chloro-2-pyridin-3-yl-thiazol-5-yl)-N-ethyl-2-methyl-3-methylsulfanyl-propionamide]
[1]
  pest or weed control at 200 ppm: 80 to 100%
[2]
  pest or weed control at 200 ppm: < 80%
other
  melting point: 79 to 81 °C

## CC(C)(C)OC(=O)N(C(=O)OC(C)(C)C)c1sc(-c2cncc(F)c2)nc1Br [Compound 317]
[1]
  pest or weed control at 200 ppm: 80 to 100%
[2]
  pest or weed control at 200 ppm: < 80%
other
  melting point: 154 to 156 °C
